Assay results as given in EPA's ToxValDB 9.5 (doi:10.2903/j.efsa.2005.25r).
In brackets after ≈: the same amount, converted by molar mass.

What was measured:
Apis mellifera = details: acute
Coturnix coturnix = details: acute; duration: 5 days; oral; diet; mortality
Cyprinodon variegatus = details: mortality
Daphnia magna = details: chronic/long-term; duration: 21 days; growth
Hyalella azteca = details: chronic/long-term; duration: 21 days; mortality
Oncorhynchus mykiss = details: chronic/long-term; duration: 28 days; mortality
Phasianus sp. = details: short-term; duration: 5 days; oral; feed; mortality

SMILES: CN(C)C(=O)Nc1ccc(Cl)c(Cl)c1 [Diuron]
- LEL (Apis mellifera; dermal): > 100 µg/piece
- LEL (Apis mellifera; oral, unspecified): > 100 µg/piece
- LC50 (Colinus virginianus; acute, duration: 5 days, oral, diet, mortality): 346 mg/kg-day
- LD50 (Colinus virginianus; acute, duration: 14 days, oral, diet, mortality): 1100 mg/kg
- NOEC (Colinus virginianus; reproduction developmental): 24.1 mg/kg-day
- LC50 (Coturnix coturnix): > 5000 mg/kg
- LC50 (Cyprinodon variegatus; acute, duration: 96 hours): 6.7 µg/mL (≈ 28.7 µM)
- NOEC (Cyprinodon variegatus; chronic/long-term, duration: 32 days): 1.7 mg/L
- NOEC (Daphnia magna): 0.096 mg/L
- NOEC (Hyalella azteca): 0.06 mg/L
- NOEC (Oncorhynchus mykiss): 0.41 mg/L
- LC50 (Phasianus sp.): > 5000 mg/kg
- LC50 (Pontoscolex corethrurus; acute, mortality): > 798 mg/kg
- NOEC (Pontoscolex corethrurus; chronic/long-term): 14.4 mg/kg
- LD50 (Rattus norvegicus; acute, mortality): 2000 mg/kg
- NOAEL (Rattus norvegicus; chronic): 80 mg/kg-day
- LOAEL (Rattus norvegicus; chronic, duration: 2 years, F, hematological): 1.7 mg/kg-day
- NOAEL (Rattus norvegicus; chronic, duration: 6 months, hematological): 1.6 mg/kg-day
- NOAEL (Rattus norvegicus; chronic, duration: 6 months, oral, hematological): 0.66 mg/kg-day
